Experimental findings from patent US6818663B2, “Diaminothiazoles” (Hoffmann-La Roches, priority 2002, dated 2004) are described below.

A word on the IC50: it is the midpoint of a concentration-inhibition curve.

The target of assay [1] is human cyclin B-CDK1 (Homo sapiens, UniProt P06493). The assay can be described thus: FlashPlate kinase assay, cyclin B-CDK1, Rb substrate. Format: biochemical. Particulars: recombinant cyclin B-CDK1, Rb phosphorylation, 1 μM ATP. Put shortly:
(§1)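 Recombinant human cyclin–CDK complexes, co-expressed in insect cells, phosphorylated His-tagged Rb (aa 386-928) coated on FlashPlates at 10 μg/ml. Reaction used 1 μM ATP plus 4 nM ^33P-ATP and 20 mM MgCl2 for 30 min at room temperature. % inhibition came from scintillation counts against no-enzyme and no-compound wells, and IC50 was the concentration halving radiolabel incorporation.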

For assay [2], the target named is human cyclin E-CDK2 (Homo sapiens, UniProt P24941). The assay can be described thus: FlashPlate kinase assay, cyclin E-CDK2, Rb substrate. Format: biochemical. Particulars: recombinant cyclin E-CDK2, Rb phosphorylation, 1 μM ATP. In short, it runs like this: as §1
The target of assay [3] is human cyclin D1-CDK4 (Homo sapiens, UniProt P11802). The assay can be described thus: FlashPlate kinase assay, cyclin D1-CDK4, Rb substrate. Format: biochemical. Particulars: recombinant cyclin D1-CDK4, Rb phosphorylation, 1 μM ATP. Put shortly:
as §1

The subject of assay [4] is HCT116, a colorectal carcinoma cell line. The assay can be described thus: Tetrazolium dye proliferation assay (MTT assay). Format: cell-based. Particulars: Homo sapiens, HCT-116, HCT116 cells, inhibition of cell proliferation. In short, it runs like this: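 HCT116 cells in McCoy's 5A + 10% FCS, plated overnight, then dosed in duplicate with serial dilutions (final DMSO 0.3%) and incubated to growth-curve time points. MTT at 1 mg/ml for 2.5-3 h, formazan in ethanol, A570/650. IC50 by linear regression of log concentration vs % inhibition relative to blank and DMSO controls.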
For orientation: Tetrazolium assays rely on reduction of a dye to a coloured formazan, in cell work by metabolically active cells.

Chain of human cyclin B-CDK1 (P06493 whole entry, the tested form may be a part): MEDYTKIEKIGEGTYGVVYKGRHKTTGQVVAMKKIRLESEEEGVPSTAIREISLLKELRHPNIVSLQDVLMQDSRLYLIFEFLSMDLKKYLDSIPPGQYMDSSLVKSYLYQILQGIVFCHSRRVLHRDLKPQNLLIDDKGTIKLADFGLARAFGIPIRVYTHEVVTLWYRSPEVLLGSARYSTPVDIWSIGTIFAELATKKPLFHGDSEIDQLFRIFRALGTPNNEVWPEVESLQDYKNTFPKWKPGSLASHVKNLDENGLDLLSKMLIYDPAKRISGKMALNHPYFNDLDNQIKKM
Chain of human cyclin B-CDK1 (P14635 whole entry partner, the tested form may be a part): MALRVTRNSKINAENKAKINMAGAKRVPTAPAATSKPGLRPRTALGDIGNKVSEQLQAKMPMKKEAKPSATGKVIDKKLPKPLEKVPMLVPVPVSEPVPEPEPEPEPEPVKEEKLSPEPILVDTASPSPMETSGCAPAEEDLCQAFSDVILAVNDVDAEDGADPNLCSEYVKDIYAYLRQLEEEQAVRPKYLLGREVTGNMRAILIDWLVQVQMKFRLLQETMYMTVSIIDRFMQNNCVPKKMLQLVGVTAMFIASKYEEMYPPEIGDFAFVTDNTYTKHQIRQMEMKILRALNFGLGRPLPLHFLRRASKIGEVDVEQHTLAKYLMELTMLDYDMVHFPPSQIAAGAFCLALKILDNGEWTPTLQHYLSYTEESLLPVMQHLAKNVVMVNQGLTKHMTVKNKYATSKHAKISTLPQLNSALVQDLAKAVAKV
Chain of human cyclin D1-CDK4 (P11802 whole entry): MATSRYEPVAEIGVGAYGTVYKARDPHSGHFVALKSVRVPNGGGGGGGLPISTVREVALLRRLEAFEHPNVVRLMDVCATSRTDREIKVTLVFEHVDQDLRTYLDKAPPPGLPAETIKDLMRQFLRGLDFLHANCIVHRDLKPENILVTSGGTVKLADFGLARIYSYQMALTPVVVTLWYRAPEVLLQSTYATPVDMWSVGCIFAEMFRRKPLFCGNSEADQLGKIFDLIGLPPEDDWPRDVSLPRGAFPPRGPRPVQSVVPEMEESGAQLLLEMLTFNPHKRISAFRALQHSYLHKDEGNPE
Chain of human cyclin D1-CDK4 (P24385 whole entry partner): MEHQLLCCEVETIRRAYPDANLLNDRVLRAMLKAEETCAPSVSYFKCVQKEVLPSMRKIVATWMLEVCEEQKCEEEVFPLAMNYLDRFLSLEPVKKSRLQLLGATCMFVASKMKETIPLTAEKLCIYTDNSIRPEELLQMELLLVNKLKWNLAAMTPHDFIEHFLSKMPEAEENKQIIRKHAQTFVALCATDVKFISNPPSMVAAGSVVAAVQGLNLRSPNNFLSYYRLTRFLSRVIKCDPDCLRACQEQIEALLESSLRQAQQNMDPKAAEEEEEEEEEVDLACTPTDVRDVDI

On to `CCN1CCCC(Oc2ccc(Nc3nc(N)c(C(=O)c4cccc(C)c4)s3)cc2)C1` (stereo not drawn) [Example 78, [4-Amino-2-[4-(1-ethyl-piperidin-3-yloxy)-phenylamino]-thiazol-5-yl]-m-tolyl-methanone], for which the IC50 was 806 nM in assay [1], 1080 nM in assay [2], 41 nM in assay [3] and 1510 nM in assay [4].
In the same order, the values of `CCc1cccc(C(=O)c2sc(Nc3ccc(OC4CCCN(CC)C4)cc3)nc2N)c1` (stereo not drawn) [Example 79, [4-Amino-2-[4-(1-ethyl-piperidin-3-yloxy)-phenylamino]-thiazol-5-yl]-(3-ethyl-phenyl)-methanone] are 1080 nM, 1170 nM, 23 nM and 1470 nM.
As to `CCN1CCCC(Oc2ccc(Nc3nc(N)c(C(=O)c4cccc(C5CC5)c4)s3)cc2)C1` (stereo not drawn) [Example 80, [4-Amino-2-[4-(1-ethyl-piperidin-3-yloxy)-phenylamino]-thiazol-5-yl]-(3-cyclopropyl-phenyl)-methanone], the IC50 in assay [1] stood at 1840 nM; in assay [2] it was 2280 nM; in assay [3], 19 nM; in assay [4], 1720 nM.
On the same counts, the results for `CCN1CCC(Oc2ccc(Nc3nc(N)c(C(=O)c4cccc(C)c4)s3)cc2)C1` (stereo not drawn) [Example 83, [4-Amino-2-[4-(1-ethyl-pyrrolidin-3-yloxy)-phenylamino]-thiazol-5-yl]-m-tolyl-methanone] are 980 nM, 499 nM, 49 nM and 1560 nM.
In the case of `CCc1cccc(C(=O)c2sc(Nc3ccc(OC4CCN(CC)C4)cc3)nc2N)c1` (stereo not drawn) [Example 84, [4-Amino-2-[4-(1-ethyl-pyrrolidin-3-yloxy)-phenylamino]-thiazol-5-yl]-(3-ethyl-phenyl)-methanone], the IC50 in assay [1] was 655 nM; in assay [2] it was 278 nM; in assay [3] it was 46 nM; in assay [4] it was 1510 nM.
On the same counts, the results for `CCN1CCC(Oc2ccc(Nc3nc(N)c(C(=O)c4cccc(C5CC5)c4)s3)cc2)C1` (stereo not drawn) [Example 85, [4-Amino-2-[4-(1-ethyl-pyrrolidin-3-yloxy)-phenylamino]-thiazol-5-yl]-(3-cyclopropyl-phenyl)-methanone] are 1080 nM, 887 nM, 51 nM and 2010 nM.
For the compound `CCCc1cc(C(=O)c2sc(Nc3ccc(OC4CCCN(CC)C4)cc3)nc2N)ccc1O` (stereo not drawn) [Example 88, [4-Amino-2-[4-(1-ethyl-piperidin-3-yloxy)-phenylamino]-thiazol-5-yl]-(4-hydroxy-3-propyl-phenyl)-methanone; Compound With Acetic Acid], the IC50 turned out to be 241 nM in assay [1], 234 nM in assay [2], 39 nM in assay [3] and 280 nM in assay [4].
Take `CCCc1cc(C(=O)c2sc(Nc3ccc(OC4CCN(CC)C4)cc3)nc2N)ccc1O` (stereo not drawn) [Example 89, [4-Amino-2-[4-(1-ethyl-pyrrolidin-3-yloxy)-phenylamino]-thiazol-5-yl]-(4-hydroxy-3-propyl-phenyl)-methanone; Compound With Acetic Acid]: the IC50 was found to be 261 nM in assay [1], 175 nM in assay [2], 19 nM in assay [3] and 327 nM in assay [4].
As for `CCc1cccc(C(=O)c2sc(Nc3ccc(OC4CCNC4)cc3)nc2N)c1` (stereo not drawn) [Example 92, [4-Amino-2-[4-(pyrrolidin-3-yloxy)-phenylamino]-thiazol-5-yl)-(3-ethyl-phenyl)-methanone; Compound With Acetic Acid], the 50% inhibitory concentration (IC50) turned out to be 538 nM in assay [1], 495 nM in assay [2], 51 nM in assay [3] and 1570 nM in assay [4].
Turning to `Nc1nc(Nc2ccc(OC3CCNC3)cc2)sc1C(=O)c1cccc(C2CC2)c1` (stereo not drawn) [Example 93, [4-Amino-2-[4-(pyrrolidin-3-yloxy)-phenylamino]-thiazol-5-yl]-(3-cyclopropyl-phenyl)-methanone; Compound With Acetic Acid], the IC50 in assay [1] turned out to be 859 nM; in assay [2], 1200 nM; in assay [3], 42 nM; in assay [4] it was 2020 nM.
In the same order, the values of `COc1ccc(C(=O)c2sc(Nc3ccc(OC4CCNC4)cc3)nc2N)cc1F` (stereo not drawn) [Example 96, [4-Amino-2-[4-(pyrrolidin-3-yloxy)-phenylamino]-thiazol-5-yl]-(3-fluoro-4-methoxy-phenyl)-methanone] are 668 nM, 1440 nM, 39 nM and 3290 nM.
On the same counts, the results for `CCNCCOc1ccc(Nc2nc(N)c(C(=O)c3cccc(C)c3)s2)cc1` [Example 100, [4-Amino-2-(4-(2-ethylamino-ethoxy)-phenylamino]-thiazol-5-yl]-m-tolyl-methanone; Compound With Acetic Acid] are 731 nM, 1230 nM, 43 nM and 880 nM.
In the same order, the values of `CCNCCOc1ccc(Nc2nc(N)c(C(=O)c3cccc(CC)c3)s2)cc1` [Example 101, [4-Amino-2-[4-(2-ethylamino-ethoxy)-phenylamino]-thiazol-5-yl]-(3-ethyl-phenyl)-methanone; Compound With Acetic Acid] are 660 nM, 1110 nM, 21 nM and 685 nM.
On to `CCNCCOc1ccc(Nc2nc(N)c(C(=O)c3cccc(C4CC4)c3)s2)cc1` [Example 102, [4-Amino-2-[4-(2-ethylamino-ethoxy)-phenylamino]-thiazol-5-yl]-(3-cyclopropyl-phenyl)-methanone; Compound With Acetic Acid], for which the IC50 in assay [1] worked out at 883 nM; in assay [2] it was 1690 nM; in assay [3] it was 26 nM; in assay [4] it was 738 nM.
In the same order, the values of `CCNCCOc1ccc(Nc2nc(N)c(C(=O)c3ccc(C)c(F)c3)s2)cc1` [Example 103, [4-Amino-2-[4-(2-ethylamino-ethoxy)-phenylamino]-thiazol-5-yl]-(3-fluoro-4-methyl-phenyl)-methanone; Compound With Acetic Acid] are 432 nM, 1760 nM, 41 nM and 1430 nM.
On the same counts, the results for `CCNCCOc1ccc(Nc2nc(N)c(C(=O)c3ccc(F)c(CC)c3)s2)cc1` [Example 104, [4-Amino-2-[4-(2-ethylamino-ethoxy)-phenylamino]-thiazol-5-yl]-(3-ethyl-4-fluoro-phenyl)-methanone; Compound With Acetic Acid] are 3510 nM, 3310 nM, 52 nM and 2450 nM.
On the same counts, the results for `CCCc1cc(C(=O)c2sc(Nc3ccc(OCCNCC)cc3)nc2N)ccc1O` [Example 105, [4-Amino-2-[4-(2-ethylamino-ethoxy)-phenylamino]-thiazol-5-yl]-(4-hydroxy-3-propyl-phenyl)-methanone; Compound With Acetic Acid] are 112 nM, 176 nM, 18 nM and 390 nM.
On to `CCCc1cc(C(=O)c2sc(Nc3ccc(OC[C@@H](C)N(C)C)cc3)nc2N)ccc1O` [Example 107, (R)-[4-Amino-2-[4-(2-dimethylamino-propoxy)-phenylamino]-thiazol-5-yl]-(4-hydroxy-3-propyl-phenyl)-methanone; Compound With Acetic Acid], for which the IC50 in assay [1] stood at 240 nM; in assay [2], 213 nM; in assay [3], 26 nM; in assay [4] it was 491 nM.
In the case of `CCCc1cc(C(=O)c2sc(Nc3ccc(OCC(C)(C)N(C)C)cc3)nc2N)ccc1O` [Example 108, [4-Amino-2-[4-(2-dimethylamino-2-methyl-propoxy)-phenylamino]-thiazol-5-yl]-(4-hydroxy-3-propyl-phenyl)-methanone; Compound With Acetic Acid], the IC50 is 291 nM in assay [1], 295 nM in assay [2], 26 nM in assay [3] and 518 nM in assay [4].
On the same counts, the results for `CCCc1cc(C(=O)c2sc(Nc3ccc(OCCN4CCCC4)cc3)nc2N)ccc1O` [Example 109, [4-Amino-2-[4-(2-pyrrolidin-1-yl-ethoxy)-phenylamino]-thiazol-5-yl]-(4-hydroxy-3-propyl-phenyl)-methanone; Compound With Acetic Acid] are 151 nM, 207 nM, 14 nM and 229 nM.
On the same counts, the results for `CCCc1cc(C(=O)c2sc(Nc3ccc(OC[C@@H](C)N4CCCC4)cc3)nc2N)ccc1O` [Example 110, (R)-[4-Amino-2-[4-(2-pyrrolidin-1-yl-propoxy)-phenylamino]-thiazol-5-yl]-(4-hydroxy-3-propyl-phenyl)-methanone; Compound With Acetic Acid] are 177 nM, 182 nM, 23 nM and 291 nM.
